The values that follow come from article PMC10376843, “Discovery of Novel Myristic Acid Derivatives as N-Myristoyltransferase Inhibitors: Design, Synthesis, Analysis, Computational Studies and Antifungal Activity” (Antibiotics, 2023).

Experiment [1] relates to Aspergillus niger (ATCC 16888). As to the kind of experiment: antifungal micro-broth dilution assay, A. niger. Format: cell-based. Particulars: read-out: MIC50 A. niger. As for the experimental part: (§1) A microbroth dilution method was used to test the synthesized compounds. In vitro tests for antifungal activity against Candida albicans (C. albicans) and Aspergillus niger (A. niger) were carried out in triplicate at concentrations ranging from 100 μg/mL to 6.25 μg/mL. The percentage cytotoxicity and MIC50 value for each compound were calculated from the observed absorbance measured at 590 nm, and the results are shown in Table 5. Fluconazole was used as a reference drug, and the antifungal activities were expressed as minimum inhibitory concentration (MIC50) values in μg/mL.
(§2) From HIMEDIA M210 Mumbai, India, test fungal strains were acquired. The conventional micro-broth dilution method was used to test the in vitro antifungal activity of the synthesized compounds against the fungi Candida albicans (ATCC 10231) and Aspergillus niger (ATCC 16888) from the American Type Culture Collection. The acquired fungal strains were used in the current experiment after being subcultured in SDB (Sabouraud dextrose broth). The 48 h young cultures were created and kept at 26 °C before the experiment.
(§3) According to the CLSI’s standard M27 recommended methodology, the SDB was treated with the compounds, which were dissolved in DMSO via the serial dilution method in sterile circumstances to achieve the necessary concentration levels. All the cultures that had been exposed to the compounds were serially diluted twice in growth media, inoculated to about 1 × 10^5 CFU/mL and incubated at 26 °C for 48 h. Subsequently, using a UV spectrophotometer, the absorbance at 590 nm of each culture was determined. The formula was used to compute the viability percentage.
(§4) Percentage viability = ([…]) × 100
(§5) The percentage inhibition was calculated using the formula (100 - cell viability) and plotted in the graph to determine the MIC50 value for each compound (Figure 8) and (Figure 9).
(§6) GraphPad Prism 8.0.2 software (San Diego, CA, USA) was used for statistical analysis. The MIC50 value was established via a nonlinear regression analysis.
Background: Dilution methods test growth across graded concentrations, often in twofold steps.

Experiment [2] deals with Candida albicans (ATCC 10231). As to the kind of experiment: antifungal micro-broth dilution assay, C. albicans. Format: cell-based. As to conditions: ATCC10231, 48 h. How it is done: as §1, §2, §3, §4, §5, §6
Experiment [3] addresses N-Myristoyltransferase (NMT). Description: in vitro biochemical NMT inhibition assay (fluorescence detection of CoA). Particulars: 0.1 nM to 10,000 nM; excitation 380 nm, emission 470 nm. As for the experimental part:
The potency of the myristic acid derivatives was determined via an in vitro NMT assay. Coenzyme A (CoA) was detected as a byproduct of an enzymatic reaction. Fluorescence was measured at an excitation wavelength of 380 nm and an emission wavelength of 470 nm. In this assay, the intensity of fluorescence was […], giving a signal (Figure 7).
The NMT protein used in the study was from the supplier Ray Biotech. The assay was performed in 96-well black PP microplates with the myristic acid derivatives in concentrations ranging from 0.1 nM to 10,000 nM. The solutions were prepared in a buffer containing 20 mM of potassium phosphate (pH 7.9–8.0) and 0.5 mM of ethylenediaminetetraacetic acid (EDTA), 0.1% (v/v) Triton X-100, and a final concentration of 2.7% (v/v) dimethyl sulfoxide (DMSO). Fluorescence was measured at an excitation wavelength of 380 nm and an emission wavelength of 470 nm. These readings were obtained on an EnSight Multimode Microplate Reader, and we plotted the response vs. concentration (log nM), ranging from 0.1 nM to 10,000 nM, to obtain the IC50 values using Graph Pad Prism, according to the reported standard procedure.

The mark [4] stands for this setting: ATCC16888, ATCC 16888, 48 h, 26 °C, 100 to 6.25 μg/mL, absorbance 590 nm.
The mark [5] stands for this setting: ATCC 10231, 26 °C, 100 to 6.25 μg/mL, absorbance 590 nm, read-out: MIC50 C. albicans.

Values after ≈ are worked out from the molar mass of the structure shown. Where two headings read alike, the source gives them in different places.

Consider `CCCCCCCCCCCCCC(=O)Nc1cccc(C)c1` [Compound 3k, N-(m-tolyl) tetradecanamide], for which the IC50 was 59.6 µg/mL (≈ 188 µM) in experiment [1] (setting [4]), 10.8 µg/mL (≈ 33.9 µM) in experiment [2] (setting [5]) and 1290 nM in experiment [3].

With `CCCCCCCCCCCCCC(=O)Nc1ccc(OCC)cc1` [Compound 3l, N-(4-ethoxyphenyl) tetradecanamide], the IC50 in experiment [1] (setting [4]) was 75.9 µg/mL (≈ 218 µM); in experiment [2] (setting [5]) it was 15 to 22 µg/mL (≈ 43.2 to 63.3 µM); in experiment [3], > 1500 nM.

As for `CCCCCCCCCCCCCC(=O)NC1CCCCC1` [Compound 3m, N-cyclohexyltetradecanamide], the IC50 was 14.7 µg/mL (≈ 47.4 µM) in experiment [1] (ATCC16888, 48 h); 15 to 22 µg/mL (≈ 48.5 to 71.1 µM) in experiment [2] (read-out: MIC50 C. albicans, ATCC 10231, 26 °C, 100 to 6.25 μg/mL, absorbance 590 nm); 863 nM in experiment [3].

For `CCCCCCCCCCCCCC(=O)N1CCOCC1` [Compound 3n, 1-morpholinotetradeca-1-one], the IC50 is 31.4 µg/mL (≈ 106 µM) in experiment [1] (setting [4]), 27.6 µg/mL (≈ 92.8 µM) in experiment [2] (setting [5]) and > 1500 nM in experiment [3].

For the compound `CCCCCCCCCCCCCC(=O)N(C)c1ccccc1` [Compound 3o, N-methyl-N-phenyltetradecanamide], the IC50 in experiment [1] (setting [4]) is 94.2 µg/mL (≈ 297 µM); in experiment [2] (setting [5]), 15 to 22 µg/mL (≈ 47.2 to 69.3 µM); in experiment [3] it was > 1500 nM.

On to `CCCCCCCCCCCCCC(=O)Nc1ccccc1` [Compound 3p, N-phenyltetradecanamide], for which the values for the IC50 in experiment [1] (setting [4]), in experiment [2] (setting [5]) and in experiment [3] were 24.8 µg/mL (≈ 81.6 µM), 15 to 22 µg/mL (≈ 49.4 to 72.5 µM) and > 1500 nM, respectively.

On to `CCCCCCCCCCCCCC(=O)N(CC)c1ccccc1` [Compound 3q, N-ethyl-N-phenyltetradecanamide], for which the IC50 in experiment [1] (setting [4]) was 28.5 µg/mL (≈ 86.1 µM); in experiment [2] (setting [5]), 28.4 µg/mL (≈ 85.7 µM); in experiment [3], > 1500 nM.

As to `CCCCCCCCCCCCCC(=O)Nc1ccc(F)cc1` [Compound 3r, N-(4-fluorophenyl) tetradecanamide], the IC50 was 15.4 µg/mL (≈ 48 µM) in experiment [1] (setting [4]), 11.9 µg/mL (≈ 37 µM) in experiment [2] (setting [5]) and 1460 nM in experiment [3].

Take `CCCCCCCCCCCCCC(=O)Nc1ccc(C(F)(F)F)cc1` [Compound 3s, N-(4-(trifluoromethyl)phenyl)tetradecanamide]: the IC50 was 34.3 µg/mL (≈ 92.3 µM) in experiment [1] (setting [4]), 38.8 µg/mL (≈ 104 µM) in experiment [2] (setting [5]) and > 1500 nM in experiment [3].

On to `CCCCCCCCCCCCCC(=O)Nc1ccc(O)cc1` [Compound 3t, N-(4-hydroxyphenyl) tetradecanamide], for which the figures for the IC50 in experiment [1] (setting [4]), in experiment [2] (setting [5]) and in experiment [3] were 17.4 µg/mL (≈ 54.5 µM), 12.9 µg/mL (≈ 40.5 µM) and 1000 nM, respectively.

For the compound `CCCCCCCCCCCCCC(=O)Nc1ccccn1` [Compound 3u, N-(pyridine-2-yl) tetradecanamide], the IC50 in experiment [1] (setting [4]) turned out to be 14.4 µg/mL (≈ 47.2 µM); in experiment [2] (setting [5]), 10.6 µg/mL (≈ 34.9 µM); in experiment [3] it was 835 nM.

For the compound `CCCCCCCCCCCCCC(=O)Nc1nc(C)cs1` [Compound 3v, N-(4-methylthiazol-2-yl) tetradecanamide], the IC50 in experiment [1] (setting [4]) is 22.1 µg/mL (≈ 68.3 µM); in experiment [2] (setting [5]) it was 32.4 µg/mL (≈ 99.8 µM); in experiment [3], > 1500 nM.

In the case of `OC(Cn1cncn1)(Cn1cncn1)c1ccc(F)cc1F` [FLZ, Fluconazole, reference compound], the IC50 in experiment [1] (setting [4]) was determined as 16.3 µg/mL (≈ 53.2 µM); in experiment [2] (setting [5]), 17.8 µg/mL (≈ 58 µM).

In experiment [3], `CCCCCCCCCCCCCC(=O)O` [Myristic acid] showed an IC50 of 4210 nM.
